Assay results: patent publication US8338336B2, “Synergistic herbicidal composition containing penoxsulam and oxyfluorfen” (Dow AgroSciences, LLC, priority 2010, dated 2012)

Assays:
Format in all cases: in vivo
[1] = test system: SHRAR = field madder (Sherardia arvensis); test: Field trial, autumn pre-emergence application, residual weed control (Table 2); details: rated 97 to 175 Days After Application
Procedure: (§1) Evaluation of Pre-Emergence and Post-Emergence Herbicidal Activity of Mixtures in the Field
(§2) Field trials were conducted in perennial tree and vine crops using standard herbicide small plot research methodology. Plots varied from 3×3 meter (m) to 3×10 m (width×length) with 3 to 4 replicates per treatment. The perennial tree and vine crops were grown using normal cultural practices for the respective areas for the trials, using normal planting, fertilization, watering, flooding and maintenance for pests to ensure good growth of the crop and the weeds.
(§3) All treatments in the field trials were applied using a carbon dioxide (CO2) backpack sprayer calibrated to apply 187 liters per hectare (L/ha) spray volume. Commercially available products of penoxsulam and oxyfluorfen were mixed in water at appropriate formulated product rates to achieve the desired rates shown based on a unit area of application (hectare). Treatments were rated at different intervals from treatment to evaluation, from 7 to 175 days after application as compared to the untreated control plants. Due to the long term residual weed control needed to determine the synergistic effect, all single entity products and their tank mixes were mixed with glyphosate to ensure complete weed burndown to be able to measure residual weed control and not just burndown of weeds. Visual weed control was scored on a scale of 0 to 100 percent where 0 corresponds to no injury and 100 corresponds to complete kill.
(§4) Colby's equation was used to determine the herbicidal effects expected from the mixtures (Colby, S. R. Calculation of the synergistic and antagonistic response of herbicide combinations. Weeds 1967, 15, 20-22).
(§5) The following equation was used to calculate the expected activity of mixtures containing two active ingredients, A and B: Expected=A+B−(A×B/100)
(§6) A=observed efficacy of active ingredient A at the same concentration as used in the mixture.
(§7) B=observed efficacy of active ingredient B at the same concentration as used in the mixture.

[2] = test system: ERICA = marestail (Conyza canadensis); test: as above; details: Spain, rated 97 to 175 Days After Application; for % Control ERICA (2) Ob (observed visual weed control): Moron de la frontera; for % Control ERICA (1) Ob (observed visual weed control): Utrera
Procedure: as §1, §2, §3, §4, §5, §6, §7

[3] = test system: CHEAL = common lambsquarter (Chenopodium album); test: Field trial, autumn post-emergence application, residual weed control (Table 3); details: rated 56 Days After Application
Procedure: as §1, §2, §3, §4, §5, §6, §7

[4] = test system: POROL = purslane (Portulaca oleracea); test: as above; details: rated 56 Days After Application
Procedure: as §1, §2, §3, §4, §5, §6, §7

[5] = test system: HEOEU = common heliotrope (Heliotropium europaeum); test: as above; details: rated 56 Days After Application
Procedure: as §1, §2, §3, §4, §5, §6, §7

[6] = test system: MALNE = mallow/malva (Malva neglecta); test: Field trial, winter pre-emergence application, residual weed control (Table 1); details: rated 50 to 132 Days After Application
Procedure: as §1, §2, §3, §4, §5, §6, §7

[7] = test system: ERICA = marestail (Conyza canadensis); test: as above; details: rated 50 to 132 Days After Application
Procedure: as §1, §2, §3, §4, §5, §6, §7

[8] = test system: ERIBO = fleabane (Conyza bonariensis); test: as above; details: rated 50 to 132 Days After Application
Procedure: as §1, §2, §3, §4, §5, §6, §7

[9] = test system: SOLNI = black nightshade (Solanum nigrum); test: Field trial, autumn post-emergence application, post-emergence burndown activity (Table 4); details: Seville; for % Control SOLNI(2) Ob (observed visual weed control): Spain - 7 Days After Application; for % Control SOLNI(1) Ob (observed visual weed control): Spain - 20 Days After Application
Procedure: as §1, §2, §3, §4, §5, §6, §7

COc1cnc(OC)n2nc(NS(=O)(=O)c3c(OCC(F)F)cccc3C(F)(F)F)nc12 [Penoxsulam, 2-(2,2-difluoroethoxy)-N-(5,8-dimethoxy-[1,2,4]triazolo[1,5-c]pyrimidin-2-yl)-6-(trifluoromethyl)benzenesulfonamide]
% Control SHRAR Ob (observed visual weed control) ([1]; penoxsulam 20 g/ha alone): 0% | % Control ERICA (2) Ob (observed visual weed control) ([2]; penoxsulam 20 g/ha alone): 6% | % Control ERICA (1) Ob (observed visual weed control) ([2]; penoxsulam 20 g/ha alone): 23% | % Control CHEAL Ob (observed visual weed control) ([3]; penoxsulam 20 g/ha alone): 0% | % Control POROL Ob (observed visual weed control) ([4]; penoxsulam 20 g/ha alone): 0% | % Control HEOEU Ob (observed visual weed control) ([5]; penoxsulam 20 g/ha alone): 0% | % Control MALNE Ob (observed visual weed control) ([6]; penoxsulam 17.5 g/ha alone): 37% | % Control MALNE Ob (observed visual weed control) ([6]; penoxsulam 35 g/ha alone): 50% | % Control ERICA Ob (observed visual weed control) ([7]; penoxsulam 8.8 g/ha alone): 75% | % Control ERIBO Ob (observed visual weed control) ([8]; penoxsulam 8.8 g/ha alone): 65% | % Control SOLNI(2) Ob (observed visual weed control) ([9]; penoxsulam 20 g/ha alone): 10% | % Control SOLNI(1) Ob (observed visual weed control) ([9]; penoxsulam 20 g/ha alone): 10%

CCOc1cc(Oc2ccc(C(F)(F)F)cc2Cl)ccc1[N+](=O)[O-] [Oxyfluorfen]
% Control SHRAR Ob (observed visual weed control) ([1]; oxyfluorfen 150 g/ha alone): 63% | % Control ERICA (2) Ob (observed visual weed control) ([2]; oxyfluorfen 150 g/ha alone): 79% | % Control ERICA (1) Ob (observed visual weed control) ([2]; oxyfluorfen 150 g/ha alone): 38% | % Control CHEAL Ob (observed visual weed control) ([3]; oxyfluorfen 150 g/ha alone): 0% | % Control POROL Ob (observed visual weed control) ([4]; oxyfluorfen 150 g/ha alone): 0% | % Control HEOEU Ob (observed visual weed control) ([5]; oxyfluorfen 150 g/ha alone): 0% | % Control MALNE Ob (observed visual weed control) ([6]; oxyfluorfen 1680 g/ha alone): 30% | % Control ERICA Ob (observed visual weed control) ([7]; oxyfluorfen 1680 g/ha alone): 5% | % Control ERIBO Ob (observed visual weed control) ([8]; oxyfluorfen 1120 g/ha alone): 0% | % Control SOLNI(2) Ob (observed visual weed control) ([9]; oxyfluorfen 150 g/ha alone): 45% | % Control SOLNI(1) Ob (observed visual weed control) ([9]; oxyfluorfen 150 g/ha alone): 35%
